From patent publication US20260285855A1, “HETEROARYL DERIVATIVES AS DDRS INHIBITORS” (CHIESI FARMACEUTICI S.P.A., priority 2023, published 2026)

Tests used:
DDR1 = target: T1, DDR1 (Homo sapiens, UniProt Q08345); assay: LanthaScreen Europium Kinase Binding assay, DDR1; conditions: 5 nM DDR1, 20 nM Kinase Tracer 178, 1 h at rt; Ki from IC50 by Cheng-Prusoff; read-out: Ki DDR1
T1 construct: purchased Carna Biosciences
Protocol: (§1) DDR1 and DDR2 binding assays were performed using Life Technologies LanthaScreen™ Europium Kinase Binding assay. […] IC50 values were determined in GraphPad Prism 7.0 software, using 4 parameter model: log (inhibitor) vs. response. IC50 values were converted in Ki using the Cheng-Prusoff equation (Ki-IC50/(1+ [Tracer]/Kd).

DDR2 = target: T2, DDR2 (Homo sapiens, UniProt Q16832); assay: LanthaScreen Europium Kinase Binding assay, DDR2; conditions: 5 nM DDR2, 10 nM Kinase Tracer 178, 1 h at rt; Ki from IC50 by Cheng-Prusoff; read-out: Ki DDR2
T2 construct: purchased Life Technologies
T2 sequence (Q16832 22-855): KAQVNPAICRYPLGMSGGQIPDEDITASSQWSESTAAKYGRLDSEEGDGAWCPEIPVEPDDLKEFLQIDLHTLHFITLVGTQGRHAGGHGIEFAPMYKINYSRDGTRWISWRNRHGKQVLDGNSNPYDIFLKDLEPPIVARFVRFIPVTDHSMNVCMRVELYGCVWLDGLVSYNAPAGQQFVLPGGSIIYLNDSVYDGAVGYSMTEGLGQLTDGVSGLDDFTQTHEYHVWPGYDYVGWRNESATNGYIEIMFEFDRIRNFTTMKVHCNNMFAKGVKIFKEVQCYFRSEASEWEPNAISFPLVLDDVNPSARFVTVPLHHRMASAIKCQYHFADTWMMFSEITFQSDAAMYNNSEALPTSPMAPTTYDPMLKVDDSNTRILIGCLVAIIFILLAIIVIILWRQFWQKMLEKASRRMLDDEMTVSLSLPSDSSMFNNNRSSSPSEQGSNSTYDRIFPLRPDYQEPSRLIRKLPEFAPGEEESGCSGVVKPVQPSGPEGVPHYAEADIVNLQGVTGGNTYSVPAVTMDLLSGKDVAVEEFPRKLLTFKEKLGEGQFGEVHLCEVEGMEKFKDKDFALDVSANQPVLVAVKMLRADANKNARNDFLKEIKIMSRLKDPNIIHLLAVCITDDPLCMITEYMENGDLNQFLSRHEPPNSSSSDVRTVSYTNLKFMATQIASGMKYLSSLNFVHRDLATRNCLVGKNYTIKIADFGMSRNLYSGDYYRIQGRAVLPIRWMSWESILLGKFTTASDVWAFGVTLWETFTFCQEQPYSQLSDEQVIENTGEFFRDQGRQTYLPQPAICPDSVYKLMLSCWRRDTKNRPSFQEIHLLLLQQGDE
Protocol: as §1

T1 sequence (Q08345 19-913): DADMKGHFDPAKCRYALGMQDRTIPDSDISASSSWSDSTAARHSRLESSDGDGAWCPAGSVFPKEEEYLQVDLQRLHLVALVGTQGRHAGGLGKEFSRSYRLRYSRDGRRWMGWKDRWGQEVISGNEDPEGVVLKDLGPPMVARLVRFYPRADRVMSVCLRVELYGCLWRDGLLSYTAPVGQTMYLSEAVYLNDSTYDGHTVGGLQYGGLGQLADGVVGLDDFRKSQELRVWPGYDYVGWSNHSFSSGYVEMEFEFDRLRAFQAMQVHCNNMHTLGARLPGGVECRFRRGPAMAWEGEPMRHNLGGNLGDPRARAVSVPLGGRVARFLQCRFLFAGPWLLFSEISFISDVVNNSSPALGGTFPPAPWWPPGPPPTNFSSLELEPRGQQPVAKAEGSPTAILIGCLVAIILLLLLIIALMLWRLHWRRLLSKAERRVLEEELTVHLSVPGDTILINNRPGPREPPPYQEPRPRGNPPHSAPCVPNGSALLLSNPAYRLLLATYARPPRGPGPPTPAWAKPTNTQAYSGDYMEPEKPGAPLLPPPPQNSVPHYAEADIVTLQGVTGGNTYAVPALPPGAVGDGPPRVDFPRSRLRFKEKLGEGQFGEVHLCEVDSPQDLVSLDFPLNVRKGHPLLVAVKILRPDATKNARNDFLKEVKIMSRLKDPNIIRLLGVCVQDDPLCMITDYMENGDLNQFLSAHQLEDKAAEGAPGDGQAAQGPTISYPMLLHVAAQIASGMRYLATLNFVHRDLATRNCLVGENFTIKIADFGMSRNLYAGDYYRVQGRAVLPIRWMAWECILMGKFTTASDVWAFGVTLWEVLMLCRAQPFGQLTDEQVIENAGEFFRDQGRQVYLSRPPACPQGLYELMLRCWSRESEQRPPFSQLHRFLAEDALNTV

SMILES	Ki (DDR1)	Ki (DDR2)
Cn1ccn2ncc(C(=O)N3CC4(CC(NC(=O)Nc5ccc(Cl)c(C(F)(F)F)c5)C4)C3)c12 [Example 108, 1-(4-chloro-3-(trifluoromethyl)phenyl)-3-(2-(1-methyl-1H-imidazo[1,2-b]pyrazole-7-carbonyl)-2-azaspiro[3.3]heptan-6-yl)urea]	< 5 nM	5 to 25 nM
COc1ccc(S(F)(F)(F)(F)F)cc1NC(=O)NC1CC2(C1)CN(C(=O)c1cnn3ccn(C)c13)C2 [Example 109, 1-(2-methoxy-5-(pentafluoro-16-sulfaneyl)phenyl)-3-(2-(1-methyl-1H-imidazo[1,2-b]pyrazole-7-carbonyl)-2-azaspiro[3.3]heptan-6-yl)urea]	< 5 nM	< 5 nM
O=C(Nc1cc(CO)cc(C(F)(F)F)c1)NC1CC2(C1)CN(C(=O)c1ncnc3ccsc13)C2 [Example 110, 1-(3-(hydroxymethyl)-5-(trifluoromethyl)phenyl)-3-(2-(thieno[3,2-d]pyrimidine-4-carbonyl)-2-azaspiro[3.3]heptan-6-yl)urea]	< 5 nM	< 5 nM
CN(C(=O)Nc1cc(C#N)cc(OC(F)(F)F)c1)C1CC2(C1)CN(C(=O)c1cnn3ccn(C)c13)C2 [Example 111, 3-(3-cyano-5-(trifluoromethoxy)phenyl)-1-methyl-1-(2-(1-methyl-1H-imidazo[1,2-b]pyrazole-7-carbonyl)-2-azaspiro[3.3]heptan-6-yl)urea]	< 5 nM	< 5 nM
CN(C)Cc1ccc(NC(=O)NC2CC3(C2)CN(C(=O)c2ncnc4ccsc24)C3)cc1C(F)(F)F [Example 112, 1-(4-((dimethylamino)methyl)-3-(trifluoromethyl)phenyl)-3-(2-(thieno[3,2-d]pyrimidine-4-carbonyl)-2-azaspiro[3.3]heptan-6-yl)urea]	< 5 nM	5 to 25 nM
O=C(Nc1cccc(C(F)(F)F)c1)NC1CC2(C1)CN(C(=O)c1cnn3cc(CO)ccc13)C2 [Example 113, 1-(2-(6-(hydroxymethyl)pyrazolo[1,5-a]pyridine-3-carbonyl)-2-azaspiro[3.3]heptan-6-yl)-3-(3-(trifluoromethyl)phenyl)urea]	< 5 nM	< 5 nM
CN(C(=O)Nc1cc(OC(F)(F)F)ccn1)C1CC2(C1)CN(C(=O)c1cnn3ccsc13)C2 [Example 114, 1-methyl-1-(2-(pyrazolo[5,1-b]thiazole-7-carbonyl)-2-azaspiro[3.3]heptan-6-yl)-3-(4-(trifluoromethoxy)pyridin-2-yl)urea]	< 5 nM	5 to 25 nM
O=C(Nc1cccc(C(F)(F)F)c1)NC1CC2(C1)CN(C(=O)c1ccnc3[nH]ccc13)C2 [Example 115, 1-(2-(1H-pyrrolo[2,3-b]pyridine-4-carbonyl)-2-azaspiro[3.3]heptan-6-yl)-3-(3-(trifluoromethyl)phenyl)urea]	< 5 nM	5 to 25 nM
O=C(Nc1cccc(C(F)(F)F)c1)NC1CC2(C1)CN(C(=O)c1cnn3cc(CNC4COC4)ccc13)C2 [Example 116, 1-(2-(6-((oxetan-3-ylamino)methyl)pyrazolo[1,5-a]pyridine-3-carbonyl)-2-azaspiro[3.3]heptan-6-yl)-3-(3-(trifluoromethyl)phenyl)urea]	< 5 nM	5 to 25 nM
CN(C(=O)Nc1cccc(C(F)(F)C(F)(F)F)c1)C1CC2(C1)CN(C(=O)c1cnn3ccn(C)c13)C2 [Example 117, 1-methyl-1-(2-(1-methyl-1H-imidazo[1,2-b]pyrazole-7-carbonyl)-2-azaspiro[3.3]heptan-6-yl)-3-(3-(perfluoroethyl)phenyl) urea]	< 5 nM	< 5 nM
Cn1ccn2ncc(C(=O)N3CC4(CC(NC(=O)Nc5ccc(F)c(OC(F)(F)F)c5)C4)C3)c12 [Example 118, 1-(4-fluoro-3-(trifluoromethoxy)phenyl)-3-(2-(1-methyl-1H-imidazo[1,2-b]pyrazole-7-carbonyl)-2-azaspiro[3.3]heptan-6-yl)urea]	< 5 nM	< 5 nM
Cn1ccn2ncc(C(=O)N3CC4(CC(NC(=O)Nc5cc(C#N)cc(S(F)(F)(F)(F)F)c5)C4)C3)c12 [Example 119, 1-(3-cyano-5-(pentafluoro-16-sulfaneyl)phenyl)-3-(2-(1-methyl-1H-imidazo[1,2-b]pyrazole-7-carbonyl)-2-azaspiro[3.3]heptan-6-yl)urea]	< 5 nM	< 5 nM
O=C(Nc1cccc(S(F)(F)(F)(F)F)c1)NC1CC2(C1)CN(C(=O)c1ccnc3[nH]ncc13)C2 [Example 120, 1-(2-(1H-pyrazolo[3,4-b]pyridine-4-carbonyl)-2-azaspiro[3.3]heptan-6-yl)-3-(3-(pentafluoro-16-sulfaneyl)phenyl)urea]	< 5 nM	< 5 nM
Cn1ccn2ncc(C(=O)N3CC4(CC(NC(=O)Nc5ccc(F)c(C(F)(F)F)c5)C4)C3)c12 [Example 121, 1-(4-fluoro-3-(trifluoromethyl)phenyl)-3-(2-(1-methyl-1H-imidazo[1,2-b]pyrazole-7-carbonyl)-2-azaspiro[3.3]heptan-6-yl)urea]	< 5 nM	5 to 25 nM
O=C(Nc1cccc(C(F)(F)F)c1)NC1CC2(C1)CN(C(=O)c1ncnc3[nH]ncc13)C2 [Example 122, 1-(2-(1H-pyrazolo[3,4-d]pyrimidine-4-carbonyl)-2-azaspiro[3.3]heptan-6-yl)-3-(3-(trifluoromethyl)phenyl)urea]	< 5 nM	< 5 nM
Cn1ccn2ncc(C(=O)N3CC4(CC(NC(=O)Nc5cc(C(F)(F)F)ccc5F)C4)C3)c12 [Example 123, 1-(2-fluoro-5-(trifluoromethyl)phenyl)-3-(2-(1-methyl-1H-imidazo[1,2-b]pyrazole-7-carbonyl)-2-azaspiro[3.3]heptan-6-yl)urea]	< 5 nM	5 to 25 nM
Cn1ccn2ncc(C(=O)N3CC4(CC(NC(=O)Nc5cc(F)cc(OC(F)(F)F)c5)C4)C3)c12 [Example 124, 1-(3-fluoro-5-(trifluoromethoxy)phenyl)-3-(2-(1-methyl-1H-imidazo[1,2-b]pyrazole-7-carbonyl)-2-azaspiro[3.3]heptan-6-yl)urea]	< 5 nM	< 5 nM
Cn1ccn2ncc(C(=O)N3CC4(CC(NC(=O)Nc5cccc(SC(F)(F)F)c5)C4)C3)c12 [Example 125, 1-(2-(1-methyl-1H-imidazo[1,2-b]pyrazole-7-carbonyl)-2-azaspiro[3.3]heptan-6-yl)-3-(3-((trifluoromethyl)thio)phenyl) urea]	< 5 nM	< 5 nM
Cn1ccn2ncc(C(=O)N3CC4(CC(NC(=O)Nc5cc(C(F)(F)F)ccc5OC5COC5)C4)C3)c12 [Example 126, 1-(2-(1-methyl-1H-imidazo[1,2-b]pyrazole-7-carbonyl)-2-azaspiro[3.3]heptan-6-yl)-3-(2-(oxetan-3-yloxy)-5-(trifluoromethyl)phenyl)urea]	< 5 nM	5 to 25 nM
Cn1ccn2ncc(C(=O)N3CC4(CC(NC(=O)Nc5cccc(C(F)(F)C(F)(F)F)c5)C4)C3)c12 [Example 127, 1-(2-(1-methyl-1H-imidazo[1,2-b]pyrazole-7-carbonyl)-2-azaspiro[3.3]heptan-6-yl)-3-(3-(perfluoroethyl)phenyl)urea]	< 5 nM	< 5 nM
CN(C(=O)Nc1cccc(C(F)(F)F)c1)C1CC2(C1)CN(C(=O)c1ccnc3[nH]ncc13)C2 [Example 128, 1-(2-(1H-pyrazolo[3,4-b]pyridine-4-carbonyl)-2-azaspiro[3.3]heptan-6-yl)-1-methyl-3-(3-(trifluoromethyl)phenyl)urea]	< 5 nM	5 to 25 nM
CN(C(=O)Nc1cc(C(F)(F)F)ccn1)C1CC2(C1)CN(C(=O)c1cnn3ccn(C)c13)C2 [Example 129, 1-methyl-1-(2-(1-methyl-1H-imidazo[1,2-b]pyrazole-7-carbonyl)-2-azaspiro[3.3]heptan-6-yl)-3-(4-(trifluoromethyl)pyridin-2-yl)urea]	< 5 nM	5 to 25 nM
CN(C(=O)Nc1cncc(C(F)(F)F)c1)C1CC2(C1)CN(C(=O)c1ncnc3ccsc13)C2 [Example 130, 1-methyl-1-(2-(thieno[3,2-d]pyrimidine-4-carbonyl)-2-azaspiro[3.3]heptan-6-yl)-3-(5-(trifluoromethyl)pyridin-3-yl)urea]	< 5 nM	5 to 25 nM
CN(C(=O)Nc1ccc(F)c(C(F)(F)F)c1)C1CC2(C1)CN(C(=O)c1cnn3ccn(C)c13)C2 [Example 131, 3-(4-fluoro-3-(trifluoromethyl)phenyl)-1-methyl-1-(2-(1-methyl-1H-imidazo[1,2-b]pyrazole-7-carbonyl)-2-azaspiro[3.3]heptan-6-yl)urea]	< 5 nM	5 to 25 nM
